Earlier results on ten molecules are cited in patent publication US20020058028A1, “METHOD OF IN SITU DIAGNOSIS BY SPECTROSCOPIC ANALYSIS OF BIOLOGICAL STAIN COMPOSITIONS” (priority 1999, published 2002).

Read-outs that look alike come from different tables or passages of the source.

One series has as its system Staphylococcus aureus. The note with it: for active concentration against epidemic strains of methicillin-resistant Staphylococcus aureus: compared with vancomycin.
The subject of series [1] is C. albicans. The note with it: energy dose 1.32 J at 2.04 J/cm2.
Series [2] deals with human epidermoid carcinoma (A-253) cells.
Another series has as its system Schistosoma mansoni. To be noted: in vitro.
In series [3] the test system is C. albicans. To be noted: conditions employed.
For a further series, the system named is bladder carcinoma cells. The note with it: in vitro; versus Azure C, Methylene violet, Thionin, methylene green, haematoporphyrin.
The next series relates to solid Ehrlich carcinomas. To be noted: mice; laser 647 nm and 676 nm.
Series [4] concerns microtubule cytoskeleton of cultured cells. To be noted: untreated control cells normal.
For another series, the system named is Trichoderma Viride. The note with it: outside the body.
For series [5], the system named is local tumor recurrence in the area of the anastomosis.
For a further series, the system named is HeLa cells. The note with it: for incubation time to saturation of uptake: 10(−5) M.
Series [6] has as its system several other Candida spp.
Series [7] deals with influenza or encephalomyelitis viruses. To be noted: human blood plasma; plasma proteins not significantly altered.

Regarding `CN[C@H](CC(C)C)C(=O)N[C@H]1C(=O)N[C@@H](CC(N)=O)C(=O)N[C@H]2C(=O)N[C@H]3C(=O)N[C@H](C(=O)N[C@H](C(=O)O)c4cc(O)cc(O)c4-c4cc3ccc4O)[C@H](O)c3ccc(c(Cl)c3)Oc3cc2cc(c3O[C@@H]2O[C@H](CO)[C@@H](O)[C@H](O)[C@H]2O[C@H]2C[C@](C)(N)[C@H](O)[C@H](C)O2)Oc2ccc(cc2Cl)[C@H]1O` [vancomycin], the “concentration against epidemic strains of methicillin-resistant Staphylococcus aureus” value in the series on Staphylococcus aureus (comparator) was no less than 0.5 µM.
For `Cc1cc(=[N+](C)C)cc2sc3cc(N(C)C)cc(C)c3nc1-2.[Cl-]` [dimethyl methylene blue], in the series with Staphylococcus aureus, the “active concentration against epidemic strains of methicillin-resistant Staphylococcus aureus” value is reported as “lower than that of vancomycin” and the “increase in bactericidal activity on illumination, typical” value (“increase in bactericidal activity” for short) is given as roughly 4 fold.
Turning to aluminum disulphonated phthalocyanine, in the series with C. albicans [1], the “sensitization to killing by GaAs laser light” value is “not”.
Take `CCNc1cc2[s+]c3cc(NCC)c(C)cc3nc2cc1C.[Cl-]` [new methylene blue]: in the series on Staphylococcus aureus, the “active concentration against epidemic strains of methicillin-resistant Staphylococcus aureus” value is reported as “lower than that of vancomycin” and the “increase in bactericidal activity” value is on record as roughly 4 fold.
Consider `CCCCN1C(=O)C(=C/C=C/C=C2\Oc3ccccc3N2CCCS(=O)(=O)[O-])C(=O)N(CCCC)C1=S.[Na+]` [merocyanine 540], for which the “white light dose for ninety % reduction of clonogenicity” value (“white light dose for ninety % reduction” below) in series [2] is 1.5 J/cm2.
Consider rhodamine 123, for which, in series [2], the “white light dose for ninety % reduction” value is reported as 1.2 J/cm2.
In the case of `CN(C)c1ccc2cc3ccc(N(C)C)cc3nc2c1` [acridine orange], in the series with Schistosoma mansoni, the “killing upon exposure to light” value was “kills”.
As for Dihaematoporphyrin ester, in the series with C. albicans [3], the photosensitizer effectiveness result is listed as “not an effective photosensitizer”.
`CN(C)c1ccc2nc3ccc(=[N+](C)C)cc-3sc2c1` [methylene blue]: in the series on bladder carcinoma cells, the “phototoxicity compared with other dyes” value is “most phototoxic”. Moreover, in the series with solid Ehrlich carcinomas, the tumor destruction result is “significant tumor destruction, including complete tumor destruction”. For the same molecule, the tumor necrosis in the series on small adenocarcinomas (72 hours after PDT-treatment, proven experimentally) is on record as 4-5 mm. Besides, the tumors destroyed with small adenocarcinomas (after the second PDT-treatment) was 6 out of 10. Besides, the “carcinomas with inhibited growth” value with small adenocarcinomas (after the treatment) is given as “Four”. Further, the “increase in bactericidal activity” value in the series on Staphylococcus aureus is roughly 4 fold. Moreover, the “sensitization to killing by GaAs laser light” value with C. albicans [1] was “able to sensitize”. The “microtubule network after photodynamic treatment” value in series [4] is on record as “considerable or severe disorganization of the microtubule network”. For the same molecule, in the series with Trichoderma Viride, the killing upon illumination entry was “kill”. Besides, the “killing upon exposure to light” value with Schistosoma mansoni is recorded as “kills”. Moreover, the “local tumor growth in treated areas” value in series [5] (after PDT-treatment) is “no local tumor growth within 6 months”. For the same molecule, the “complications during or after PDT” value in series [5] (experimental or clinical) is on record as “no experimental or clinical complications”. Also, in the series with HeLa cells (HeLa cells), the “incubation time to saturation of uptake” value was 6 h and the “cell photoinactivation, comparison” value was “higher than that produced by TB”. The “concentration at which dark damage was not observed” value in the series with HeLa cells (HeLa cells, elevated photoinactivation detected at this concentration) was 10(−5) M.
Regarding `Cc1cc2nc3ccc(N(C)C)cc3[s+]c2cc1N.[Cl-]` [toluidine blue O, 3-amino-7-(dimethylamino)-2-methyl phenothiazin-5-ium chloride], the “white light dose for ninety % reduction” value in series [2] is reported as 1.0 J/cm2. Further, the “sensitization to killing by HeNe laser light” value in [6] was “able to sensitize”. Further, in the series with Kluyveromyces marxianus, the “ATP levels after photodynamic treatment” value is “lowered the ATP levels”; the “enzyme inhibition after treatment with dye and light” value was “inhibition of alcohol dehydrogenase, cytochrome c oxidase, glyceraldehyde-3-phosphate dehydrogenase and hexokinase”. In addition, the clonogenicity entry with Kluyveromyces marxianus (photosensitizer with light) is reported as “induce loss of clonogenicity”. In addition, the “microtubule network after photodynamic treatment” value in [4] is given as “considerable or severe disorganization of the microtubule network”. Further, the “virus inactivation by light in presence of dye” value in series [7] was “inactivated by light”. The “concentration at which dark damage was not observed” value in the series on HeLa cells is 10(−5) M. Also, the “incubation time to saturation of uptake” value with HeLa cells (HeLa cells) is 12 h.
